Data on one molecule can be found in patent EP0642343B1, “Acridine carboxamides for the treatment of cancer” (XENOVA LIMITED, priority 1992, dated 1993).

For one assay, the system named is CEM-CCRF. In words: Growth inhibition of leukaemia line, continuous exposure, MTT staining. It is filed as cell-based. The conditions noted are these: Homo sapiens. As for the experimental part:
(§1) Tumour cell lines were cultured in 96-well plates. […] Primary cultures were incubated at 37°C in sealed perspex boxes containing a humidified atmosphere of 5% CO2 and 5% O2 in nitrogen for 7 days. 5-Methyl-[^3H]-thymidine (20 Ci.mmol^-1; 0.04 µCi per well), thymidine and 5-fluorodeoxyuridine (each at final concentrations of 0.5 µM) were added in medium to cultures (20 µl per well) 24 h before terminating the cultures.
(§2) 1989, 81:1088-1092, where growth, as indicated by staining or thymidine incorporation, corresponded to 50% of that of the control cultures.
(§3) The effect of DACA on the growth of cultured cells was assessed by continuous drug exposure. […] These values were similar to those of other human leukaemia cell lines, which ranged from 290 to 760 nM (CEM-CCRF, 410 nM; MOLT-4, 290 nM; Daudi, 400 nM; Raji, 370 nM, U937, 590 nM; HL-60, 620 nM; K-562, 760 nM). Four multidrug-resistant cell lines, developed from JL and JB1 by in vitro exposure to increasing concentrations of doxorubicin (LD and B1D) or amsacrine (LA and B1A) (Finlay G.J., et al., J. Natl. Cancer Inst. 1990, 82, 662-667, Snow K., et al., Br. J. Cancer 1991, 63, 17-28) were tested.

The test system of the next assay is Daudi. Described as above. It counts as cell-based. The note with it: Homo sapiens. As for the experimental part:
as §1, §2, §3

Assay [1] concerns human Jurkat T cell leukaemia line, diploid (L). The assay is described as above. It is filed as cell-based. The conditions noted are these: continuous drug exposure. As for the experimental part:
as §1, §2, §3

Another assay relates to Raji. The description is as above. It is filed as cell-based. The note with it: Homo sapiens. As for the experimental part: as §1, §2, §3
The subject of a further assay is K-562. The description is as above. It counts as cell-based. The conditions noted are these: Homo sapiens, K562. As for the experimental part: as §1, §2, §3
For a further assay, the system named is HL-60. The assay is described as above. It is filed as cell-based. The conditions noted are these: Homo sapiens. The procedure:
as §1, §2, §3

The next assay has as its system U937. The description is as above. It is filed as cell-based. The conditions noted are these: Homo sapiens, U-937. As for the experimental part: as §1, §2, §3
In assay [2] the test system is human Jurkat T cell leukaemia line, tetraploid (B1). The assay is described as above. The note with it: continuous drug exposure. It is filed as cell-based. As for the experimental part: as §1, §2, §3
The test system of the next assay is MOLT-4. The assay is described as above. It is filed as cell-based. The note with it: Homo sapiens. The procedure:
as §1, §2, §3

The test system of assay [3] is P388 murine leukaemia (P/ACTD). The note with it: in vitro tests; reported by Schneider et al., Eur. J. Cancer Clin. Oncol. 1988; cited from earlier work.
Assay [4] relates to P388 murine leukaemia (P/ACTD). In words: Sensitivity of multidrug resistant P388 subline in vivo. As for the experimental part:
(§4) A multidrug resistant subline of P388 murine leukaemia (P/ACTD) was tested for sensitivity to DACA. This line was cross-resistant to actinomycin D, doxo-rubicin, mitoxantrone, etoposide and vincristine. Its resistance to vincristine was overcome by the presence of verapamil (10 µM). It stained for the presence of P-glycoprotein, consistent with the presence of transport-mediated multidrug resistance.

The next assay has as its system human cell lines. Nature of the assay: Cytotoxicity under continuous drug exposure, mean over human cell lines. It is filed as cell-based. The note with it: continuous drug exposure over approx. 5 cell doubling times, read-out: mean IC50 value for human cell lines. The procedure:
The latter value compared with 2 µM for the 4-pyridyl-quinoline analogue, 0.76 µM for amsacrine, 0.1 µM for the amsacrine analogue 4'-(9-[4-[N-methylcarboxamido]-5-methyl]-acridinylamino)-methanesulphon-m-anisidide ("CI-921") and 81 µM for etoposide.

Assay [5] deals with P388 murine leukaemia (P/ACTD). In words: Sensitivity of multidrug resistant P388 subline in vitro. It is filed as cell-based. The note with it: P-glycoprotein positive multidrug resistant subline. The procedure: as §4

On to `CN(C)CCNC(=O)c1cccc2cc3ccccc3nc12` [DACA, N-[2-(dimethylamino)ethyl]acridine-4-carboxamide], for which the IC50 with CEM-CCRF came to 410 nM; in the assay on Daudi it was 400 nM; in assay [1], 380 nM; in the assay on Raji, 370 nM; in the assay on K-562, 760 nM; with HL-60 it was 620 nM. Also, the IC50 in the assay on U937 is 590 nM; in [2], 380 nM; with MOLT-4, 290 nM; in the assay with human cell lines, 1300 nM. Moreover, the “cross-resistance of P/ACTD cells” value in [3] was “no cross-resistance”. Moreover, the “sensitivity of P/ACTD line” value in assay [4] and in [5] was “sensitive” each time.
